The values below come from ChEMBL document CHEMBL3576787, “Alkaloidal metabolites from a marine-derived Aspergillus sp. fungus” (J Nat Prod, 2015).

Broadly, the IC50 is the midpoint of a concentration-inhibition curve. A higher IC50 goes with a need for much substance. Broadly, the MIC is the lowest concentration found to suppress growth.

Values after ≈ are worked out from the molar mass of the structure shown. Active and inactive are the calls of the source. No cut-off for these calls is given here.

A short description of assay [1]: Inhibition of porcine cerebral cortex Na+/K+ ATPase using 3-O-methylfluorescein phosphate and […] incubated for 30 mins by spectrophotometry. The assay is classed as tissue-based, Sus scrofa.
For a further assay, the system named is Proteus hauseri. Briefly: Antimicrobial activity against Proteus hauseri incubated for 24 hrs. The assay is classed as functional.
The next assay has as its system Staphylococcus aureus. Briefly: Antimicrobial activity against Staphylococcus aureus incubated for 24 hrs. The format is functional.
The subject of another assay is Escherichia coli. Briefly: Antimicrobial activity against Escherichia coli incubated for 24 hrs. The format is functional.
The subject of a further assay is Salmonella typhimurium. Briefly: Antimicrobial activity against Salmonella typhimurium incubated for 24 hrs. The assay is classed as functional, Salmonella enterica subsp. enterica serovar Typhimurium. Particulars: Salmonella enterica.
The next assay has as its system Micrococcus luteus. Nature of the assay: Antimicrobial activity against Micrococcus luteus incubated for 24 hrs. The assay is classed as functional.
For the next assay, the system named is K562. Nature of the assay: Cytotoxicity against human K562 cells. The assay is classed as functional, cell-based.
The target in assay [2] is Isocitrate lyase (Candida albicans) (UniProt Q9P8Q7). Briefly: Inhibition of Candida albicans isocitrate lyase assessed as reduction in glyoxylate phenylhydrazone formation using phenylhydrazine and isocitrate incubated for 30 mins by spectrophotometry.
Assay [3] addresses Sortase A (Staphylococcus aureus) (UniProt Q2FV99). Nature of the assay: Inhibition of sortase A (Staphylococcus aureus).
The test system of the next assay is A549. Nature of the assay: Cytotoxicity against human A549 cells. The format is functional, cell-based.

Sequence of Isocitrate lyase (Candida albicans) (Q9P8Q7 whole entry): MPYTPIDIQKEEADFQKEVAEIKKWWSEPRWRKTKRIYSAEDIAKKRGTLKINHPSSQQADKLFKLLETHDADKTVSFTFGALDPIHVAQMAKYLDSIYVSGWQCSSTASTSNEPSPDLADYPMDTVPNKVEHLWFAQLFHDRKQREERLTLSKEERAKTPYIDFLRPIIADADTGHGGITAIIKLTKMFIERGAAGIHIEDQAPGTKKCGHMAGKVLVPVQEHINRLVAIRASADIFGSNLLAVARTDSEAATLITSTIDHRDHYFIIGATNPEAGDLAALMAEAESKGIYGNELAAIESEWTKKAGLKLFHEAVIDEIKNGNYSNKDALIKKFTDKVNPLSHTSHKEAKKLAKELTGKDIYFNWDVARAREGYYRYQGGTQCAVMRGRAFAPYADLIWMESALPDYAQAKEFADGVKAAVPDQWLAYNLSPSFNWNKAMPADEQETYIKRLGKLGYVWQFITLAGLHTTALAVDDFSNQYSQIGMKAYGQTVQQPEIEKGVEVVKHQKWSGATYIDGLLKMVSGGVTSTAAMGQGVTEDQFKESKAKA

Regarding `C[C@@H]1O[C@@H](O[C@H]2C[C@@H](O)[C@]3(CO)[C@H]4[C@H](O)C[C@]5(C)[C@@H](C6=CC(=O)OC6)CC[C@]5(O)[C@@H]4CC[C@]3(O)C2)[C@H](O)[C@H](O)[C@H]1O` [OUABAIN], the IC50 in assay [1] is 6.43 µM.

Turning to `CC1(C)S[C@@H]2[C@H](NC(=O)[C@H](N)c3ccccc3)C(=O)N2[C@H]1C(=O)O` [AMPICILLIN], the MIC is 0.39 µg/mL (≈ 1.12 µM) in the assay on Proteus hauseri; 0.78 µg/mL (≈ 2.23 µM) in the assay with Staphylococcus aureus; 3.13 µg/mL (≈ 8.96 µM) against Escherichia coli; 0.78 µg/mL (≈ 2.23 µM) against Salmonella typhimurium; 0.2 µg/mL (≈ 0.572 µM) in the assay on Micrococcus luteus.

For `CC(C)[C@@H]1N[C@@H]2N(C1=O)c1ccccc1[C@]2(O)C[C@@H]1C(=O)N[C@@H](C)c2nc3ccccc3c(=O)n21`, the minimum inhibitory concentration (MIC) in the assay on Proteus hauseri, in the assay on Staphylococcus aureus, in the assay with Escherichia coli, against Salmonella typhimurium and in the assay on Micrococcus luteus was more than 100 µg/mL throughout. Moreover, the IC50 in the assay on K562 is 13.8 µM; with A549, 15.8 µM; in [1] it was 34.3 µM. For the same compound, the inhibition entry in assay [2] and in assay [3] was “inactive” throughout.

`C[C@@H]1NC(=O)[C@@H](Cc2c[nH]c3ccccc23)n2c1nc1ccccc1c2=O` [FUMIQUINAZOLINE F]: the minimum inhibitory concentration (MIC) in the assay with Proteus hauseri is 100 µg/mL (≈ 279 µM); against Staphylococcus aureus, more than 100 µg/mL; against Escherichia coli, more than 100 µg/mL; with Salmonella typhimurium it was more than 100 µg/mL; with Micrococcus luteus, more than 100 µg/mL. The IC50 was more than 100 µM in the assay on K562, more than 100 µM with A549 and 17.4 µM in assay [1]. The inhibition entry in assay [2] and in [3] was “inactive” in each case.

`CC(C)[C@H]1C(=O)N2c3ccccc3[C@]3(O)C[C@@H](n4cnc5ccccc5c4=O)C(=O)N1[C@H]23`: the minimal inhibitory concentration (MIC) against Proteus hauseri, with Staphylococcus aureus, in the assay on Escherichia coli, with Salmonella typhimurium and against Micrococcus luteus was more than 100 µg/mL in each case. Further, the half-inhibitory concentration (IC50) in the assay with K562 came to 14.4 µM; with A549 it was 18.6 µM; in assay [1], 37.9 µM. Moreover, the inhibition result in assay [2] and in assay [3] was “inactive” each time.

Take `COc1cccc2c1C(=O)c1c(O)c3c(c(O)c1C2=O)C[C@@](O)(C(=O)CO)C[C@@H]3O[C@H]1C[C@H](N)[C@H](O)[C@H](C)O1` [DOXORUBICIN]: the figures for the IC50 with K562 and with A549 were 1.46 µM and 1.83 µM, respectively.

In the case of `CC(C)[C@@H]1N[C@@H]2N(C1=O)c1ccccc1[C@]21C[C@@H]2C(=O)N[C@](C)(O1)c1nc3ccccc3c(=O)n12` [FUMIQUINAZOLINE L], the MIC in the assay on Proteus hauseri is more than 100 µg/mL; in the assay with Staphylococcus aureus it was more than 100 µg/mL; with Escherichia coli it was more than 100 µg/mL; with Salmonella typhimurium it was 100 µg/mL (≈ 212 µM); against Micrococcus luteus it was 100 µg/mL (≈ 212 µM). Besides, the IC50 in the assay with K562 was more than 100 µM; in the assay on A549 it was more than 100 µM; in [1], 20.2 µM. For the same compound, the inhibition result in [2] and in assay [3] was “inactive” throughout.

In the case of `CC[C@H]1C(=O)N2c3ccccc3[C@]3(O)C[C@@H](n4cnc5ccccc5c4=O)C(=O)N1[C@H]23`, the MIC with Proteus hauseri, in the assay with Staphylococcus aureus, against Escherichia coli, against Salmonella typhimurium and in the assay on Micrococcus luteus was more than 100 µg/mL each time. For the same compound, the IC50 came to 25.9 µM with K562, 19.3 µM with A549 and 19.5 µM in [1]. For the same compound, the inhibition entry in assay [2] and in assay [3] was “inactive” throughout.

`C[C@H]1C(=O)N2c3ccccc3[C@]3(O)C[C@@H](n4cnc5ccccc5c4=O)C(=O)N1[C@H]23`: the MIC against Proteus hauseri, in the assay on Staphylococcus aureus, in the assay on Escherichia coli, in the assay with Salmonella typhimurium and against Micrococcus luteus was more than 100 µg/mL in each case. For the same compound, the figures for the IC50 (in the assay with K562; in the assay with A549; in assay [1]) were 50.4 µM, 21.9 µM and 78.1 µM, respectively. Besides, the inhibition entry in assay [2] and in [3] was “inactive” in each case.

Regarding `CC(C)[C@H]1C(=O)N2c3ccccc3[C@]3(O)C[C@H](n4cnc5ccccc5c4=O)C(=O)N1[C@H]23`, the minimum inhibitory concentration (MIC) with Proteus hauseri is 100 µg/mL (≈ 232 µM); against Staphylococcus aureus, 100 µg/mL (≈ 232 µM); against Escherichia coli, more than 100 µg/mL; against Salmonella typhimurium, 100 µg/mL (≈ 232 µM); in the assay on Micrococcus luteus, more than 100 µg/mL. Further, the IC50 in the assay on K562 turned out to be 17.8 µM; in the assay with A549 it was 29.2 µM; in [1], 56.8 µM. Moreover, the inhibition result in assay [2] and in [3] was “inactive” each time.
